Measurements taken from patent US7214715B2, “Compounds to treat Alzheimer's disease” (Pharmacia & Upjohn, priority 2000, dated 2007).

melting point | SMILES
214 to 219 °C | CCCN(CCC)C(=O)c1cc(C(=O)N[C@@H](Cc2ccccc2)[C@H](O)CNCc2cccc(OC)c2)cc(-c2ccccc2)c1.Cl
199 to 201 °C | CCCN(CCC)C(=O)c1cc(C(=O)N[C@@H](Cc2ccccc2)[C@H](O)CNCc2cccc(OC)c2)cc(-c2ccsc2)c1.Cl
230 to 233 °C | CCCN(CCC)C(=O)c1cc(C(=O)N[C@@H](Cc2cc(F)cc(F)c2)[C@H](O)CNCc2cccc(OC)c2)cc(-c2ccccc2)c1.Cl
205 to 209 °C | CCCN(CCC)C(=O)c1cc(C(=O)N[C@@H](Cc2ccccc2)[C@H](O)CNCc2cccc(OC)c2)cc(-c2ccc(OC)cc2)c1.Cl
